Data on two compounds can be found in PMC6522510 (Nature Communications, 2019).

Molecules are shown by their SMILES. Where two headings read alike, the source gives them in different places. A value given as a limit tells only on which side of the number the result lay.

The subject of series [1] is M07e. Description: cells.
For series [2], the system named is AMKL patient-derived xenograft. Kind of series: In vivo efficacy, survival. The settings on record: AMKL PDX, 60 mg kg−1 twice daily for 5 days up to 4 weeks, oral gavage. Set-up: species or system NSG-SGM3 mice.
Series [3] has as its system CHRF288-11-luciferase/YFP+ xenograft. Description: In vivo efficacy, survival. The note with it: CHRF288-11 xenograft, 60 mg kg−1 twice daily for 5 days up to 4 weeks, oral gavage. Also on record: species or system NSG mice.
The subject of series [4] is CMK. Kind of series: cells.
A further series has as its system M-MOK. Description: cells.
The next series has as its system WSU. Kind of series: cells. The settings on record: Homo sapiens, 72 h, read-out: IC50 (WSU).
The next series concerns Meg-01. Kind of series: cells.
For series [5], the system named is CHRF288-11. In kind it is cell-based. The settings on record: Homo sapiens, 72 h.
The subject of series [6] is CMS. In kind it is cell-based. The note with it: Homo sapiens, 72 h, read-out: IC50 CMS.
For series [7], the system named is CBFA2T3-GLIS2/JAK2V617F tertiary transplant leukemic blasts. The class given is cell-based, mouse.
Another series has as its system CMY. Description: cells.
A short description of series [8]: Pharmacokinetics of ruxolitinib, single oral dose, plasma LC-MS/MS. In kind it is in vivo, mice. The note with it: mouse, 60 mg kg−1 oral gavage. As for the experimental part:
Data are mean ± standard error (SE) (N = 5 per gender). Concentration-time data were analyzed by non-compartmental analysis and pharmacokinetic parameters were calculated in WinNonLin. c–e, top Kaplan–Meier analysis of animal survival in c CHRF288–11-luciferase/YFP+ xenograft, d CBFA2T3-GLIS2/JAK2V617F-induced AMKL quaternary transplants, and e AMKL patient-derived xenograft.
Animal studies were performed under protocols approved by the Institutional Animal Care and Use Committee at OSU. […] Serial blood collection was performed from 15 min up to 240 min after dose administration.

In the next series the test system is MKPL. Kind of series: cells.
In series [9] the test system is CHRF288-11. Kind of series: Secondary dose-response HTS, Cell Titer Glo. The settings on record: secondary HTS, 72 h, average of triplicate; read-out: EC50 CHRF288-11. The class given is cell-based, human.
Another series has as its system MOLM-13. Kind of series: Primary HTS, single concentration, Cell Titer Glo. In kind it is cell-based, human. The note with it: approximately 10 µM, 72 h, relative to positive control. In general terms: In ATP-based viability assays light output follows the ATP content of the culture.
Series [10] deals with CMS. Description: Secondary dose-response HTS, Cell Titer Glo. The class given is cell-based, human. The note with it: secondary HTS, 72 h, average of triplicate; read-out: EC50 CMS.
Series [11] deals with CMK. Description: Secondary dose-response HTS, Cell Titer Glo. In kind it is cell-based, human. The settings on record: secondary HTS, 72 h, average of triplicate; read-out: EC50 CMK.
The test system of a further series is ML-2. Description: Primary HTS, single concentration, Cell Titer Glo. The class given is cell-based, human. The note with it: approximately 10 µM, 72 h, relative to positive control.
Series [12] relates to U937. Description: Primary HTS, single concentration, Cell Titer Glo. The class given is cell-based, human. The note with it: approximately 10 µM, 72 h, relative to positive control.
Series [13] deals with CMK. Description: Primary HTS, single concentration, Cell Titer Glo. The class given is cell-based, human. The note with it: approximately 10 µM, 72 h, relative to positive control.
The subject of series [14] is CHRF288-11. Kind of series: Primary HTS, single concentration, Cell Titer Glo. In kind it is cell-based, human. The note with it: approximately 10 µM, 72 h, relative to positive control.
The test system of a further series is MV4-11. Kind of series: Primary HTS, single concentration, Cell Titer Glo. The class given is cell-based, human. The note with it: approximately 10 µM, 72 h, relative to positive control.
The subject of series [15] is CMS. Description: Primary HTS, single concentration, Cell Titer Glo. The class given is cell-based, human. The settings on record: approximately 10 µM, 72 h, relative to positive control.
The subject of series [16] is M07e. Description: Primary HTS, single concentration, Cell Titer Glo. In kind it is cell-based, human. The settings on record: approximately 10 µM, 72 h, relative to positive control.
In series [17] the test system is U937. Kind of series: Secondary dose-response HTS, Cell Titer Glo. In kind it is cell-based, human. The settings on record: secondary HTS, 72 h, average of triplicate; read-out: EC50 U937.

By IC50 is commonly meant the concentration needed to halve the response being measured. As usually defined, the AUC(0-t) is exposure summed from dosing to a finite time, without extrapolation to infinity. By Cmax is commonly meant the maximum level reached in the sampled fluid or tissue. The term Tmax denotes the time at which the peak concentration occurs. For orientation: half-life means how long it takes for the measured level to halve. Read a low half-life as rapid decline. `N#CC[C@H](C1CCCC1)n1cc(-c2ncnc3[nH]ccc23)cn1` [Ruxolitinib, ruxolitinib]: the IC50 with M07e [1] is 0.045 µM; with CMK [4] it was 0.142 µM; in the series on M-MOK, 0.0064 µM; with WSU it was 0.0087 µM; in the series with Meg-01 it was more than 10 µM; with CHRF288-11 [5] (read-out: IC50, ruxolitinib + BMP2, CHRF288-11, 72 h, with 100 ng mL−1 BMP2), 0.103 µM. In addition, the IC50 with CHRF288-11 [5] (read-out: IC50, ruxolitinib + EPO, CHRF288-11, 72 h, with 100 ng mL−1 EPO) amounted to 0.142 µM; in the series with CHRF288-11 [5] (read-out: IC50, ruxolitinib + TPO, CHRF288-11, 72 h, with 100 ng mL−1 TPO) it was 0.48 µM; with CHRF288-11 [5] (read-out: IC50, ruxolitinib alone (Fig. 6g), CHRF288-11, 72 h, without cytokine) it was 0.119 µM; in the series with CHRF288-11 [5] (read-out: IC50 CHRF288-11, 72 h, Cell Titer Glo), 0.143 µM; in the series with CMS [6], 0.064 µM; in the series with CMY it was 0.049 µM. The compound further showed an IC50 with MKPL of 6.3 µM. Besides, the Median survival in series [2] was determined as 43 days; in series [3] it was 31 days. In [7], the “sensitivity of primary murine blasts” value is reported as “sensitive”. Further, the exposure AUC(0-t) in [8] (BoyJ, Female) stood at 16.8 ± 10.8 µM·h; in series [8] (BoyJ, Male) it was 17.9 ± 6.5 µM·h; in [8] (NSG, Female), 4.8 ± 0.6 µM·h; in series [8] (NSG, Male), 4.1 ± 0.6 µM·h. Further, the Cmax in series [8] (BoyJ, Female) is 18.1 ± 10.6 µM; in [8] (BoyJ, Male), 28.6 ± 10.6 µM; in [8] (NSG, Female) it was 6.9 ± 1.7 µM; in series [8] (NSG, Male), 5.5 ± 1.7 µM. In addition, the Tmax in series [8] (BoyJ, Female) came out at 15 min; in [8] (BoyJ, Male), 15 min; in [8] (NSG, Female), 15 min; in series [8] (NSG, Male) it was 15 min. Besides, the half-life in series [8] (BoyJ, Female) was 122 ± 66 min; in [8] (BoyJ, Male), 158 ± 104 min; in [8] (NSG, Female), 75.6 ± 28.8 min; in [8] (NSG, Male) it was 79.2 ± 44.4 min.
In general, EC50 refers to the concentration needed to bring the measured effect to its halfway point. `CC(/C=C/C(=O)NO)=C\[C@@H](C)C(=O)c1ccc(N(C)C)cc1` [Trichostatin A]: the EC50 in the series with CHRF288-11 [9] turned out to be 0.04 µM; with CMS [10], 0.04 µM; in the series with CMK [11], 0.05 µM; in the series with U937 [17], 0.04 µM. For the same compound, the MOLM-13 %inh in the series on MOLM-13 turned out to be 98%. This compound also gave an ML-2 %inh in the series with ML-2 of 60%. This compound came in with a U937 %inh in the series with U937 [12] of 83%. Moreover, in the series with CMK [13], the CMK %inh came out at 137%. Moreover, in the series on CHRF288-11 [14], the CHRF288-11 %inh is given as 190%. This compound also yielded an MV4-11 %inh with MV4-11 of 81%. Also, in the series on CMS [15], the CMS %inh was 111%. In the series on M07e [16], this compound registered an M07e %inh of 147%.
